Results taken from publication PMC2682573, “A Novel Two Mode-Acting Inhibitor of ABCG2-Mediated Multidrug Transport and Resistance in Cancer Chemotherapy” (PLoS ONE, 2009).

How the values were obtained:
ABCG2 [1] = biological target: T1, ABCG2 (Homo sapiens, UniProt Q9UNQ0); test: reference inhibitor; mitoxantrone accumulation, 5D3 conformational staining and sensitization IC50 in HEK293/ABCG2 cells; format: cell-based
T1 sequence (Q9UNQ0 1-655): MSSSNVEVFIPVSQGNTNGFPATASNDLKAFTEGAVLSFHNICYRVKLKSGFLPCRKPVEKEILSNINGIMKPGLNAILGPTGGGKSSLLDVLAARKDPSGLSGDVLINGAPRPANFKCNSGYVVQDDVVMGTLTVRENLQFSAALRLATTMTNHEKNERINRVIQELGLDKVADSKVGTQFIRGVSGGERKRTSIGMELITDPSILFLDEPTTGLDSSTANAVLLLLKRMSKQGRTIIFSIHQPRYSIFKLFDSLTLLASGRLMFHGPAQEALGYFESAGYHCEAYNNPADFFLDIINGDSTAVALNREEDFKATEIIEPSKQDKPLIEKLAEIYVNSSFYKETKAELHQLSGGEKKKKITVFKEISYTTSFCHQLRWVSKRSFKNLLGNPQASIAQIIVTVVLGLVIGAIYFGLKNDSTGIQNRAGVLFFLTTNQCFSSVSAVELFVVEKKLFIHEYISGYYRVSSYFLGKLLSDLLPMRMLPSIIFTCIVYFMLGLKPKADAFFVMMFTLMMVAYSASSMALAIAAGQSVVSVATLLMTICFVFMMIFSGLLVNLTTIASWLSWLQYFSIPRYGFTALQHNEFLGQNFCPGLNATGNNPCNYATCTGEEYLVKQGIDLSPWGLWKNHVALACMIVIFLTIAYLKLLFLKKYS

ABCG2 [2] = biological target: T1, ABCG2; test: mitoxantrone accumulation ([…]) and 5D3 conformational staining ([…]) in HEK293/ABCG2 cells; format: cell-based
ABCG2 [3] = biological target: T1, ABCG2; details: hek293/abcg2 inside-out membrane vesicles

SMILES	mitoxantrone accumulation (3 μM) and 5D3 conformational staining (10 μM) in HEK2 (ABCG2 [2])	other results
COc1ccc2c3c([nH]c2c1)[C@H](C=C(C)C)N1C(=O)[C@@H]2CCCN2C(=O)[C@@H]1C3 [FTC, Fumitremorgin C]	–	IC50 (μM) / Inhibitor+MX ^a (ABCG2 [1]): 0.387 ± 0.054 µM
CC(=O)CSc1nc2ccc(Nc3nc(N4CCOCC4)nc(N4CCOCC4)n3)cc2s1 [C8]	All three analogues had similar activity as PZ-39 in enhancing mitoxantrone accumulation	–
CC(C)(C)NC(=O)CSc1nc2ccc(Nc3nc(N4CCOCC4)nc(N4CCOCC4)n3)cc2s1 [C6]	All three analogues had similar activity as PZ-39 in enhancing mitoxantrone accumulation	–
O=C(CSc1nc2ccc(Nc3nc(Nc4ccccc4)nc(Nc4ccccc4)n3)cc2s1)N1CCCC1 [E2]	All three analogues had similar activity as PZ-39 in enhancing mitoxantrone accumulation	–
O=C1c2c(O)ccc(O)c2C(=O)c2c(NCCNCCO)ccc(NCCNCCO)c21 [mitoxantrone]	–	Km (ABCG2 [3]): 2.3 µM
